Reference: ChEMBL document CHEMBL3997793, “Discovery of peptidic miR-21 processing inhibitor by mirror image phage display: A novel method to generate RNA binding D-peptides” (Bioorg Med Chem Lett, 2017)

Assays:
[1] = Binding affinity to synthetic 3'-biotin-labelled mirrored pre-miR-21 RNA by ELISA
[2] = Binding affinity to synthetic 3'-biotin-labelled pre-miR-21 RNA by ELISA
[3] = Binding affinity to synthetic 3'-biotin-labelled pre-miR-21 RNA assessed as inhibition of human recombinant Dicer-mediated pre-miR-21 processing by measuring reduction in mature miR-21 formation pretreated for 30 mins followed by dicer addition after 2 hrs by SYBR staining based PAGE analysis

`CC(C)[C@H](NC(=O)[C@H](C)NC(=O)[C@H](CCCNC(=N)N)NC(=O)[C@@H]1CSSC[C@H](NC(=O)[C@H](CCCNC(=N)N)NC(=O)CNC(=O)[C@@H]2CCCN2C(=O)CCCC[C@@H]2SC[C@@H]3NC(=O)N[C@@H]32)C(=O)N[C@@H](CCCCN)C(=O)N2CCC[C@H]2C(=O)N[C@@H](CCCCN)C(=O)N[C@@H](CCCNC(=N)N)C(=O)N[C@@H](CCCNC(=N)N)C(=O)N[C@@H](CCCNC(=N)N)C(=O)N[C@@H](CCCNC(=N)N)C(=O)N[C@@H](C)C(=O)N[C@@H]([C@@H](C)O)C(=O)N1)C(=O)O` gave an EC50 [1] of 150 nM and an EC50 [2] of 7400 nM.
In the case of `CC(C)[C@@H](NC(=O)[C@@H](C)NC(=O)[C@@H](CCCNC(=N)N)NC(=O)[C@H]1CSSC[C@@H](NC(=O)[C@@H](CCCNC(=N)N)NC(=O)CNC(=O)[C@H]2CCCN2C(=O)CCCC[C@@H]2SC[C@@H]3NC(=O)N[C@@H]32)C(=O)N[C@H](CCCCN)C(=O)N2CCC[C@@H]2C(=O)N[C@H](CCCCN)C(=O)N[C@H](CCCNC(=N)N)C(=O)N[C@H](CCCNC(=N)N)C(=O)N[C@H](CCCNC(=N)N)C(=O)N[C@H](CCCNC(=N)N)C(=O)N[C@H](C)C(=O)N[C@H]([C@H](C)O)C(=O)N1)C(=O)O`, the IC50 [3] is reported as 540 nM, the EC50 [1] is reported as 1600 nM and the EC50 [2] is reported as 440 nM.
